# Values of other authors, collected in patent US6933291B2, “Cholesterol lowering supplement” (N.V. Nutricia, priority 2000, dated 2005).
# How the values were obtained:
# [1] = case reports from the literature
# [2] = rats
# HMG-CoA reductase = details: rats given cholesterol
structure (smiles),measurement,setting,value
"CC[C@H](C)C(=O)O[C@H]1C[C@@H](C)C=C2C=C[C@H](C)[C@H](CC[C@@H]3C[C@@H](O)CC(=O)O3)[C@H]21 [Lovastatin, lovastatin]",adverse effect reported in patients,[1],liver failure
CC[C@H](CC[C@@H](C)[C@H]1CC[C@H]2[C@@H]3CC=C4C[C@@H](O)CC[C@]4(C)[C@H]3CC[C@]12C)C(C)C [beta-sitosterol],cholesterol absorption (effect in words),[2],inhibited
same,cholesterol synthesis,[2]; increased from 20.0 mg/day,28.8 mg/day
CC(C)CCC[C@@H](C)[C@H]1CC[C@H]2[C@@H]3CC=C4C[C@@H](O)CC[C@]4(C)[C@H]3CC[C@]12C [cholesterol],HMG-CoA reductase activity inhibited,HMG-CoA reductase,80%
same,conversion of cholesterol to bile acids,[2]; enhanced from 13.7 mg/day on feeding cholesterol,27.3 mg/day
same,cholesterol absorption,[2]; increased from 1.2 mg/day on feeding cholesterol,70 mg/day
